Assay results as given in PMC6154737, “Leishmanicidal Activity and Structure-Activity Relationships of Essential Oil Constituents” (Molecules : A Journal of Synthetic Chemistry and Natural …, 2017).
Converted amounts (≈) assume the structure as drawn. Like-named read-outs stand apart in the source and are kept apart here.

Legend:
[1] = Cytotoxicity on L929 fibroblasts (MTT assay); format: cell-based; conditions: mouse, MTT, mean ± SD; for viability at 24 h, 50 µg mL^−1: 50 µg mL^−1, 24 h; for viability at 24 h, 100 µg mL^−1: 100 µg mL^−1, 24 h
Description: (§1) Culture of the mouse fibroblast cell line (L929, ATCC CCL-1) were maintained in Dulbecco′s Modified Eagle Medium (DMEM, Sigma-Aldrich, St. Louis, MO, USA) supplemented with 10% heat-inactivated FBS and 1% streptomycin/penicillin (5000 units + 5 mg mL^−1, Sigma-Aldrich, St. Louis, MO, USA), and kept in a humid atmosphere at 37 °C and 5% CO2.
(§2) Fibroblasts were distributed in 96-well plates (2 × 10^4 cells/well) and incubated for 24 h in a 5% CO2 atmosphere at 37 °C. After this period, the medium was removed and the adhered cells were treated with the compounds at concentrations of 50.0 and 100.0 μg mL^−1 for 24 h under the same incubation conditions. Untreated cells were used as controls and considered with 100% cell viability. After the treatment period, cell viability was determined by MTT assay as described in ISO 10993-5 [50], with modifications. For this, the cell monolayer was washed twice with PBS (pH 7.4), and then 200 μl MTT (0.5 mg mL^−1 in PBS, Sigma-Aldrich, St. Louis, MO, USA) was added to each well. The plates were again incubated under the same conditions as listed above, for a period of 3 h. After the incubation time, the MTT was aspirated and the formazan crystals were solubilized in 200 μL of DMSO. After 10 min, the optical density (OD) was measured on a microplate reader at the wavelength of 570 nm. The results were expressed as percentage of viability according to the following equation:(3) Viability=Absorbance (treated cell)/Absorbance (control cell) × 100
(§3) Each experiment was conducted in quadruplicate and repeated at least three times. Data were expressed as mean ± standard deviation (±SD).

L929 fibroblasts = assay: Cytotoxicity on L929 fibroblasts (MTT assay); format: cell-based; conditions: intensity scale of Rodrigues et al.; for Cytotoxicity class (symbol) at 50 µg mL^−1: 50 µg mL^−1, 24 h; for Cytotoxicity class (symbol) at 50 µg mL^−1 / Cytotoxicity class (symbol) at 100 µg mL^−1: MTT; for Cytotoxicity class (symbol) at 100 µg mL^−1: 100 µg mL^−1, 24 h
Description: as §1, §2, §3

[2] = tested on: Leishmania amazonensis promastigotes; assay: In vitro leishmanicidal activity (resazurin viability) against promastigotes; format: cell-based; conditions: for Activity against L. amazonensis promastigotes in words: concentrations up to 1000.0 μg mL^−1
Description: Culture of L. amazonensis (LTCP 9667 obtained by Giudice et al.) promastigotes were maintained at 24 °C in Schneider′s Drosophila medium (Sigma-Aldrich, St. Louis, MO, USA; pH 6.7) supplemented with 10% (v/v) inactivated fetal bovine serum (FBS, Gibco by Thermo Fisher Scientific, Carlsbad, CA, USA), ampicillin 500 mg m^−1, 1% and gentamicin 40 mg mL^−1, 0.1% (Sigma-Aldrich, St. Louis, MO, USA).
Promastigotes of L. amazonensis in log-phase growth were distributed in a 96-well plate (5 × 10^5 cells/well) and treated with the evaluated compounds solubilized in dimethyl sulfoxide (DMSO, Sigma-Aldrich, St. Louis, MO, USA) and diluted in Schneider′s medium in different concentrations (between 0.0 and 1000.0 μg mL^−1) and incubated for 24 h at 24 °C in a biochemical oxygen demand (BOD) incubator. Promastigotes incubated in the absence of test compounds were used as a negative control. Promastigotes treated with Amphotericin B (Sigma-Aldrich, St. Louis, MO, USA) were used as a positive control. The cellular viability of the parasites was evaluated using the colorimetric method of resazurin, adapted from Kulshrestha et al.. Briefly, after the treatment time, 50 μL of resazurin (2 mM mL^−1 in phosphate-buffered saline (PBS)) (Sigma-Aldrich, St. Louis, MO, USA) was added per well and the plates were again incubated for 6 h at 24 °C, then read in a spectrophotometer (Synerg H1, Biotek, Winooski, VT, USA) at 570 and 595 nm. Absorbance was used to calculate cell viability based on the following equation:(1) Viability (%)=Abs.570 nm−(Abs.595 nm × RO) test/Abs.570 nm –(Abs.595 nm × RO) control × 100 wherein:(2) RO= OD medium with resazurin in 570 nm−OD medium without resasurin in 570 nm/OD medium with resazurin in 595 nm−OD medium without resazurin in 595 nm
The IC50 values were obtained by a non-linear regression analysis from the viability values using the GraphPad Prism 5.0 program. All experiments were performed in triplicate from three independent experiments and the data were expressed as mean ± standard deviation (±SD).

L. chagasi promastigotes = conditions: cited from earlier work
[3] = tested on: promastigotes of L. tropica; set-up: method as in PMID 24365244; conditions: doses up to 400 μg mL^−1; cited from earlier work
[4] = tested on: promastigotes of L. major; set-up: method as in PMID 24365244; conditions: doses up to 400 μg mL^−1; cited from earlier work
[5] = tested on: promastigotes of L. infantum; set-up: method as in PMID 24365244; conditions: doses up to 400 μg mL^−1; cited from earlier work
[6] = tested on: promastigotes of L. infantum chagasi; set-up: method as in PMID 27591136; conditions: up to the dose of 750 μg mL^−1; cited from earlier work
[7] = tested on: L. amazonensis promastigotes; conditions: cited from earlier work
L. panamensis = tested on: L. panamensis; set-up: method as in earlier work; conditions: cited from earlier work
[8] = tested on: L. donovani promastigotes; set-up: method as in PMID 18095647; conditions: cited from earlier work
[9] = Leishmania amazonensis, 24 h, promastigotes, 24 h incubation, resazurin method, mean ± SD of three independent experiments in triplicate, read-out: IC50
[10] = Leishmania amazonensis, 24 h, promastigotes, 24 h incubation, resazurin method, mean ± SD of three independent experiments in triplicate, read-out: IC50 (µg mL^−1)
[11] = L. chagasi promastigotes, ref 28
[12] = Leishmania amazonensis, 24 h, read-out: IC50 (µg mL^−1)

| SMILES | viability at 24 h, 50 µg mL^−1 ([1]; L929 fibroblast cells) | viability at 24 h, 100 µg mL^−1 ([1]; L929 fibroblast cells) | Cytotoxicity class (symbol) at 50 µg mL^−1 (L929 fibroblasts) | Cytotoxicity classification in words at 50.0 μg mL^−1 (L929 fibroblasts) | Cytotoxicity class (symbol) at 100 µg mL^−1 (L929 fibroblasts) | IC50 [2, 9] | IC50 [2, 10] | IC50 (L. chagasi promastigotes; [11]) | further results |
| --- | --- | --- | --- | --- | --- | --- | --- | --- | --- |
| Cc1ccc(C(C)C)cc1 [p-Cymene, 1-methyl-4-propan-2-ylbenzene] | 91.2 ± 6.6% | 87.1 ± 6.7% | ** (Non-cytotoxic (viability >80%)) | non-cytotoxic | ** (Non-cytotoxic (viability >80%)) | > 7450 µM | > 1000 µg/mL | 149.1 µg/mL (≈ 1110 µM) | Activity against L. amazonensis promastigotes in words [2]: no effect on the viability; Activity against L. amazonensis promastigotes in words ([2]; listed as p-cymene): did not exhibit any activity |
| C[C@@H]1[C@H](O)[C@@H](C)/C=C/C=C/C=C/C=C/C=C/C=C/C=C/[C@H](O[C@@H]2O[C@H](C)[C@@H](O)[C@H](N)[C@@H]2O)C[C@@H]2O[C@](O)(C[C@@H](O)C[C@@H](O)[C@H](O)CC[C@@H](O)C[C@@H](O)CC(=O)O[C@H]1C)C[C@H](O)[C@H]2C(=O)O [Amphotericin B, reference compound] | – | – | – | – | – | 0.054 ± 0.01 µM | 0.05 ± 0.01 µg/mL | – | – |
| CC1(C)[C@@H]2CC[C@@]1(C)[C@H](O)C2 [Isoborneol, (1R,3R,4R)-4,7,7-trimethylbicyclo[2.2.1]heptan-3-ol] | 73.3 ± 9.4% | 72.9 ± 7.5% | – | – | – | 1230 ± 63.5 µM | 190 ± 9.8 µg/mL | – | Leishmanicidal activity in words [3]: No leishmanicidal activity was found; Leishmanicidal activity in words [4]: No leishmanicidal activity was found; Leishmanicidal activity in words [5]: No leishmanicidal activity was found |
| C=CCc1ccc(O)c(OC)c1 [Eugenol, 2-methoxy-4-prop-2-enylphenol] | 78.1 ± 7% | 63.1 ± 1.7% | – | – | – | – | – | – | IC50 ([2]; Leishmania amazonensis, 24 h): 505 ± 37.8 µM; IC50 [2, 12]: 82.9 ± 6.2 µg/mL; IC50 (L. chagasi promastigotes; promastigote forms of L. chagasi): 56.1 µg/mL (≈ 342 µM) |
| C=C[C@](C)(O)CCC=C(C)C [(−)-Linalool, (3R)-3,7-dimethylocta-1,6-dien-3-ol] | 65.7 ± 8.2% | 66.7 ± 7.8% | – | – | – | 1790 ± 156 µM | 276 ± 24 µg/mL | – | Changes in the viability of promastigotes in words [6]: did not identify changes in the viability; IC50 ([7]; L. amazonensis promastigotes): 0.0043 µg/mL (≈ 0.0279 µM) |
| Cc1ccc(C(C)C)c(O)c1 [Thymol, 5-methyl-2-propan-2-ylphenol] | 64.5 ± 4% | 58.5 ± 6.7% | – | – | – | 178 ± 24.6 µM | 26.8 ± 3.7 µg/mL | – | IC50 ([7]; L. amazonensis): 22.6 µg/mL (≈ 150 µM); IC50 (L. panamensis): 194.3 µg/mL (≈ 1290 µM) |
| CC(C)[C@@H]1CC[C@@H](C)C[C@H]1O [(−)-Menthol, (1R,2S,5R)-5-methyl-2-propan-2-ylcyclohexan-1-ol] | 83.8 ± 8% | 81.2 ± 2.4% | ** (Non-cytotoxic (viability >80%)) | non-cytotoxic | ** (Non-cytotoxic (viability >80%)) | 1270 ± 76.8 µM | 198 µg/mL | – | IC50 ([2]; promastigotes, 24 h incubation, resazurin method, mean ± SD of three independent experiments in triplicate, listed as (–)-Menthol (7)): 198.9 ± 12.0 µg/mL |
| Cc1ccc(C(C)C)cc1O [Carvacrol, 2-methyl-5-propan-2-ylphenol] | 51.3 ± 3% | 46.1 ± 2.9% | – | – | * (Moderate cytotoxicity (viability between >30% and <50%)) | – | – | 28.0 µg/mL (≈ 186 µM) | Cytotoxicity classification in words at 100.0 μg mL^−1 (L929 fibroblasts): moderate cytotoxicity; IC50 ([2]; Leishmania amazonensis, 24 h): 169 ± 16 µM; IC50 [2, 12]: 25.4 ± 2.4 µg/mL; IC50 ([7]; L. amazonensis promastigotes, 72 h incubation, p-nitrophenol phosphate): 15.3 µg/mL (≈ 102 µM); IC50 (L. chagasi promastigotes; L. chagasi promastigotes, ref 27): 2.3 µg/mL (≈ 15.3 µM) |
| CC1=CCC2C(C1)C2(C)C (stereo not shown) [Compound 3-Carene, 4,7,7-trimethylbicyclo[4.1.0]hept-3-ene] | 84.1 ± 6.4% | 48.7 ± 6.7% | ** (Non-cytotoxic (viability >80%)) | non-cytotoxic | * (Moderate cytotoxicity (viability between >30% and <50%)) | 532 ± 136 µM | 72.5 ± 18.5 µg/mL | – | Cytotoxicity classification in words at 100.0 μg mL^−1 (L929 fibroblasts): moderate cytotoxicity; IC50 [8]: 27.0 µg/mL (≈ 198 µM) |
| C=C(C)[C@@H]1CC=C(C)C(=O)C1 [(−)-Carvone, (5R)-2-methyl-5-prop-1-en-2-ylcyclohex-2-en-1-one] | – | – | – | – | – | 1300 ± 113 µM | 195 ± 16.9 µg/mL | > 300.0 µg/mL | viability at 24 h, 50 µg mL^−1 [1]: 65.1 ± 4.7%; viability at 24 h, 100 µg mL^−1 [1]: 58.2 ± 4.2% |
